{"source": "paper PMC7689096", "about": "“Cyclizing Painkillers: Development of Backbone-Cyclic TAPS Analogs” (Frontiers in Chemistry, 2020)", "key": {"[1]": {"molecular_target": "T1, δ (DOP, OPRD2) opioid receptor (Mus musculus, UniProt P32300)", "T1 construct": "NG-10815 cells which express significant endogenous levels of δ opioid receptors; host or cells: NG-10815 (NG108-15) mouse N18TG2 neuroblastoma x rat C6-BU-1 glioma hybrid cells", "T1 sequence (P32300 whole entry)": "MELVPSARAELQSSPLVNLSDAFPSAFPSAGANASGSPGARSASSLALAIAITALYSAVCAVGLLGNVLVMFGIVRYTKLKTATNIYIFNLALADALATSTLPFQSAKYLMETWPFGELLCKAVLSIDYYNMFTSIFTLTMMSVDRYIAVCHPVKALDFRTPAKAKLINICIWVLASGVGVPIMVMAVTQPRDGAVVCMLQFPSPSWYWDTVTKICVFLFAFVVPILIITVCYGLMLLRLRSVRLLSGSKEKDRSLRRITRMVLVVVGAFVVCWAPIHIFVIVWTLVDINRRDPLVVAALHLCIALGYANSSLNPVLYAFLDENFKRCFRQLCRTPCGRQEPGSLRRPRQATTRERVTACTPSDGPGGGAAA", "assay": "DOP opioid receptor functional antagonism in NG-10815 cells", "type": "cell-based, rat", "conditions": "Between 10^−9-10^−6 M, percent inhibition of control specific agonist response", "description": "(§1) Peptides were tested for μ (MOP, OPRM1) and δ (DOP, OPRD2) opioid receptor activation functional agonism and antagonism using CHO cells expressing human recombinant μ receptors and NG-10815 cells which express significant endogenous levels of δ opioid receptors. The cultures were incubated for 10 min at 37°C followed by impedance measurements of CHO cells and cAMP was assayed by the HTRF method using NG-10815 cells, according to CEREP standard assay protocols. The respective reference, non-peptide small molecules were tested concurrently with the TAPS analogs. The agonist compounds were: DPDPE (selective agonist of DOP receptor) and DAMGO (high MOP receptor specificity) and the antagonist compounds were: Naltrindole (selective DOP receptor antagonist) and CTOP (MOP receptor antagonist). […] The results are expressed as a percentage of respective control-specific response. […] These findings indicate that TAPS cyclic peptides are MOP selective full agonists. […] The cyclic TAPS peptide had lower activity than the linear parent TAPS peptide (90 ± 5%) – a finding that can be attributed to their restricted conformation relative to the flexible linear peptide conformation.\n(§2) The respective reference, non-peptide small molecules were tested concurrently with the TAPS analogs; Agonist compounds DPDPE ([D-Pen2,D-Pen5]enkephalin), selective agonist of DOP receptor at 2 × 10^−9 M and DAMGO ([D-Ala2, N-MePhe4, Gly-ol] enkephalin), high MOP specificity at 2.5 × 10^−9 M; Antagonist compounds: naltrindole 7-(cyclopropylmethyl)-6,7-dehydro-4,5α-epoxy-3,14-dihydroxy-6,7-2′,3′-indolomorphinan hydrochloride, selective DOP antagonist, 5 × 10^−10 M and CTOP (D-Phe-Cys-Tyr-D-Trp-Orn-Thr-Pen-Thr-NH2), MOP antagonist at 3.4 × 10^−7 M. Depending on the assay volume and solvent tolerance, the stock solutions were diluted to [100×], [333×] or [1,000×] in 100% DMEM solvent, then either added directly or further diluted to [10×] or [5×] in H2O or Hank's balanced salt solution (HBSS) before addition to the assay well (final solvent concentration kept constant). The cultures were incubated for 10 min at 37°C followed by impedance measurements using cellular dielectric spectroscopy of CHO cells and cAMP was assayed by homogeneous time resolved fluorescence (HTRF) method using NG-10815 cells, according to CEREP standard assay protocols (https://euroscreenfast.com/assays/opioid-orl1-camp-fast-0360c; https://euroscreenfast.com/assays/opioid-op1-delta-camp-fast-0379c). The results (mean of three experiments) are expressed as a percent of control specific agonist response [(measured TAPS specific response/control specific agonist response) × 100] and as a percent inhibition of control specific agonist response [100 – (measured TAPS specific response/control specific agonist response) × 100] obtained in the presence of the TAPS compounds. Results showing a stimulation or an inhibition lower than 25% were considered not significant and mostly attributable to variability of the signal around the control level. Results showing a stimulation or an inhibition higher than 50% were considered to represent significant effects of the TAPS compounds."}, "[2]": {"molecular_target": "T1, δ (DOP, OPRD2) opioid receptor", "assay": "DOP opioid receptor functional agonism in NG-10815 cells", "type": "cell-based, rat", "conditions": "At 10^−6 M, percent of control specific agonist response", "description": "as §1\nEvaluation of the Agonist Activity of Compounds at the Rat delta2 Receptor Endogenously Expressed in NG-10815 Cells, Determined by Measuring Their Effects on Impedance Modulation Using the CellKey (CDS) Detection Method\nCells are seeded onto 96-well plate coated with fibronectin at 2 × 10^5 cells/well in HBSS buffer (Invitrogen) + 20 mM HEPES (Invitrogen) with 0.1% BSA and allowed to equilibrate for 60 min at 37°C before the start of the experiment. Plates are placed onto the system and measurements are made at a temperature of 37°C. […] Impedance measurements are monitored for 10 min after ligand addition. The standard reference agonist is DPDPE, which is tested in each experiment at several concentrations to generate a concentration-response curve from which its EC50 value is calculated.\nas §2, with “The results (mean of three experiments) are expressed as a percent of control specific agonist response [(measured TAPS specific response/control specific agonist response) × 100] and as a percent inhibition of control specific agonist response [100 – (measured TAPS specific response/control specific agonist response) × 100] obtained in the presence of the TAPS compounds. Results showing a stimulation or an inhibition lower than 25% were considered not significant and mostly attributable to variability of the signal around the control level. Results showing a stimulation or an inhibition higher than 50% were considered to represent significant effects of the TAPS compounds.” left out"}}}
{"smiles": "N=C(N)NCCC[C@@H]1C(=O)N[C@@H](Cc2ccccc2)C(=O)N(CC(N)=O)CCNC(=O)NCCCCCCN1C(=O)[C@@H](N)Cc1ccc(O)cc1", "note": "[TAPS c(2-6)]", "values": [{"measurement": "DOP antagonist (%)", "setting": "[1]", "result": 6, "unit": "%"}, {"measurement": "DOP agonist (%)", "setting": "[2]", "result": 11, "unit": "%"}]}
